In ChEMBL document CHEMBL3714716, “Modulators of the relaxin receptor 1” (2015):
In brackets after ≈: the same amount, converted by molar mass. Activity calls are given as the source filed them. The rule behind the calls is not given here.

How the values were obtained:
Relaxin receptor 1 [1] = target: T1, Relaxin receptor 1 (Homo sapiens, UniProt Q9HBX9); test: Agonist activity at RXFP1 receptor in human THP1 cells assessed as stimulation of cAMP production incubated for 30 mins by HTRF assay; format: functional, cell-based, THP-1
T1 sequence (Q9HBX9 whole entry): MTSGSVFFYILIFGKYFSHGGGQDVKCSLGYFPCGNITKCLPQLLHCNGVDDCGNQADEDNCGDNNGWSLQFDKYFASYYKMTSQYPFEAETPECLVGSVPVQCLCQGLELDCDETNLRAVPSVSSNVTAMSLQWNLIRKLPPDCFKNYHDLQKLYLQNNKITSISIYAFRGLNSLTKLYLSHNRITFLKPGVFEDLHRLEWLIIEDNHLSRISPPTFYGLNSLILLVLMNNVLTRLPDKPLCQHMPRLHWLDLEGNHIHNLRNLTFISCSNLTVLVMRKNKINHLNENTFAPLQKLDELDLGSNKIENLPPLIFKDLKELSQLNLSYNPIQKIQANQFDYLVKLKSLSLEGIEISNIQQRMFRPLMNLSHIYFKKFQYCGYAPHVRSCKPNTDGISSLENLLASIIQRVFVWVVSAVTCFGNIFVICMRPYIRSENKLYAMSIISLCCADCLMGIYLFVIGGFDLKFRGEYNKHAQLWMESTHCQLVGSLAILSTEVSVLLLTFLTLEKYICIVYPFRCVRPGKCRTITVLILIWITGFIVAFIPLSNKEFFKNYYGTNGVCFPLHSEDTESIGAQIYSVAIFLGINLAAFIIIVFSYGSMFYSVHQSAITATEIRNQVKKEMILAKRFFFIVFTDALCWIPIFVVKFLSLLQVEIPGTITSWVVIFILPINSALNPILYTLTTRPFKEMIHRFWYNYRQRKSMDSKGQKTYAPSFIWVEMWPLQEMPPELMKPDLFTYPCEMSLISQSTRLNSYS

[2] = Stimulation of VEGF gene expression in human THP1 cells assessed as change in VEGF mRNA level incubated for 2 hrs by quantitative real time RT-PCR method relative to control; format: functional, cell-based; conditions: THP-1
[3] = target: T2, Relaxin receptor 1 (Homo sapiens) (UniProt Q9HBX9); test: Agonist activity at RXFP1 receptor (unknown origin) expressed in HEK293 cells assessed as stimulation of cAMP production incubated for 30 mins by TR-FRET based HTRF assay relative to forskolin; format: functional, cell-based
T2 sequence (whole entry): T1 sequence (Q9HBX9 whole entry)

Relaxin receptor 1 [4] = target: T1, Relaxin receptor 1; test: Agonist activity at RXFP1 receptor (unknown origin) expressed in HEK293 cells assessed as stimulation of cAMP production incubated for 30 mins by TR-FRET based HTRF assay; format: functional, cell-based
[5] = Solubility in PBS buffer; format: physicochemical
Vasopressin V1b receptor = target: T3, Vasopressin V1b receptor (Homo sapiens, UniProt P47901); test: Agonist activity at vasopressin receptor 1b (unknown origin) expressed in HEK293 cells assessed as stimulation of cAMP production incubated for 30 mins by HTRF assay; format: functional, cell-based
T3 sequence (P47901 whole entry): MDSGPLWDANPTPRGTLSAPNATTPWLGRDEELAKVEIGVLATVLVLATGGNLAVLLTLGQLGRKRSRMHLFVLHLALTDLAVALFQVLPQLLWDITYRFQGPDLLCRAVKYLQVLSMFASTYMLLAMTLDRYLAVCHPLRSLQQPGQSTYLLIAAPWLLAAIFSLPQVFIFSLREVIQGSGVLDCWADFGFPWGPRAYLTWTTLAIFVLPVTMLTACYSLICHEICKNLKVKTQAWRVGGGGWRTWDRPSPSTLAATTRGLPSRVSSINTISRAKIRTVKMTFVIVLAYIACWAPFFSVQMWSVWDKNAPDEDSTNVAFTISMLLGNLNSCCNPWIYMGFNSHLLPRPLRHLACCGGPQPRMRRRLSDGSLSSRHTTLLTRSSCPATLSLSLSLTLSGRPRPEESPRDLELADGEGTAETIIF

Relaxin receptor 2 [6] = target: T4, Relaxin receptor 2 (Homo sapiens, UniProt Q8WXD0); test: Agonist activity at RXFP2 receptor (unknown origin) expressed in HEK293 cells assessed as stimulation of cAMP production incubated for 30 mins by HTRF assay relative to control; format: functional, cell-based
[7] = Cytotoxic activity against HEK293 cells assessed as reduction in cell viability by measuring ATP level incubated for 72 hrs by ATP cytotoxicity assay relative to control; format: cell-based; conditions: human, read-out: %max
HEK293 = test: Cytotoxic activity against HEK293 cells assessed as reduction in cell viability by measuring ATP level incubated for 72 hrs by ATP cytotoxicity assay; format: cell-based, Homo sapiens
[8] = target: T5, Vasopressin V1b receptor (Homo sapiens) (UniProt P47901); test: Agonist activity at vasopressin receptor 1b (unknown origin) expressed in HEK293 cells assessed as stimulation of cAMP production incubated for 30 mins by HTRF assay relative to control; format: functional, cell-based
T5 sequence (whole entry): T3 sequence (P47901 whole entry)

Relaxin receptor 2 [9] = target: T4, Relaxin receptor 2; test: Agonist activity at RXFP2 receptor (unknown origin) expressed in HEK293 cells assessed as stimulation of cAMP production incubated for 30 mins by HTRF assay; format: functional, cell-based
[10] = Half life in mouse liver microsomes; format: ADME
[11] = target: T2, Relaxin receptor 1 (Homo sapiens); test: Agonist activity at RXFP1 receptor (unknown origin) expressed in HEK293 cells assessed as increase cell impedance at 250 to 750 nM measured every 10 to 30 secs for 1 hr by real time cell analyzer method; format: functional, cell-based
[12] = Homo sapiens, HEK293, 72 h, read-out: EC50

T4 sequence (Q8WXD0 whole entry): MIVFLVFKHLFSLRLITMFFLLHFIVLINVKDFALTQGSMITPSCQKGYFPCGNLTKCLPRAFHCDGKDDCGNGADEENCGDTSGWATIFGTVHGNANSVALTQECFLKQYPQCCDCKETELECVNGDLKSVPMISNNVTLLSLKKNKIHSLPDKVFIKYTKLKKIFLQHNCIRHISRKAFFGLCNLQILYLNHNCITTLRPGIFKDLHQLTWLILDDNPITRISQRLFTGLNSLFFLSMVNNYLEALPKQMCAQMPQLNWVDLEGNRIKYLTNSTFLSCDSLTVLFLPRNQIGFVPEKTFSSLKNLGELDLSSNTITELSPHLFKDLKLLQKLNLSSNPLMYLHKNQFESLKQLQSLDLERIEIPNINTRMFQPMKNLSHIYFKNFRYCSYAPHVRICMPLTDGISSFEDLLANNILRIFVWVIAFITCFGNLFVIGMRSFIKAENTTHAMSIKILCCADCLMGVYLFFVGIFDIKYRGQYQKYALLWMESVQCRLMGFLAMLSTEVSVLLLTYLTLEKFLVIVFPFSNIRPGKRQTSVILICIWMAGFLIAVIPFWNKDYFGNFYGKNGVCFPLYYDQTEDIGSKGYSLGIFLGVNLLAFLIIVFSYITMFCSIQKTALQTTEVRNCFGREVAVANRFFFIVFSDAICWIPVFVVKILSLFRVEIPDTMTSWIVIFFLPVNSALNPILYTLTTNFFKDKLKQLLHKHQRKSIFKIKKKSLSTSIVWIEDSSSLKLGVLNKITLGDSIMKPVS

Work on `COc1ccccc1C(=O)Nc1ccccc1C(=O)Nc1cccc(SC(F)(F)F)c1` yielded an EC50 (Relaxin receptor 1 [1]) of 523 nM, a fold change (FC) [2] of 1.2 and a %max [3] of 99%. For the same compound, the AC50 (Relaxin receptor 1 [4]; read-out: AC50) was 297 nM.

For `O=C(Nc1ccccc1C(=O)Nc1cccc(C(F)(F)F)c1)c1ccc2c(c1)OCO2`, the solubility [5] was 2.9 µM (≈ 1.24 µg/mL), the %max [3] was 81% and the AC50 (Vasopressin V1b receptor) was “Not Active”. For the same compound, the %max (Relaxin receptor 2 [6]) was 54%, the AC50 (Relaxin receptor 1 [4]; read-out: AC50) was 6660 nM and the Emax at 72 h [7] was -31%. For the same compound, the EC50 (HEK293; [12]) was 3740 nM, the %max [8] was < 30% and the AC50 (Relaxin receptor 2 [9]; read-out: AC50) was 3340 nM.

For `O=C(Nc1cccc(S(=O)(=O)C(F)(F)F)c1)c1ccccc1NC(=O)c1ccccc1OCC(F)(F)F`, the EC50 (Relaxin receptor 1 [1]) was 107 nM, the fold change (FC) [2] was 1.3 and the %max [3] was 97%. The AC50 (Relaxin receptor 1 [4]; read-out: AC50) was 67 nM.

For `O=C(Nc1ccccc1C(=O)Nc1cccc(C(F)(F)F)c1)c1cccnc1`, the solubility [5] was 7 µM (≈ 2.7 µg/mL), the %max [3] was 95% and the AC50 (Vasopressin V1b receptor) was “Not Active”. The %max (Relaxin receptor 2 [6]) was < 30%, the AC50 (Relaxin receptor 1 [4]; read-out: AC50) was 5930 nM and the Emax at 72 h [7] was 85%. For the same compound, the EC50 (HEK293; [12]) was 9400 nM, the %max [8] was < 30% and the AC50 (Relaxin receptor 2 [9]; hek293) was “Not Active”.

For `O=C(Nc1ccccc1C(=O)Nc1cccc(C(F)(F)F)c1)c1cccs1`, the solubility [5] was 3.3 µM (≈ 1.29 µg/mL), the %max [3] was 88% and the AC50 (Vasopressin V1b receptor) was “Not Active”. The %max (Relaxin receptor 2 [6]) was < 30%, the AC50 (Relaxin receptor 1 [4]; read-out: AC50) was 1880 nM and the half-life [10] was 1.67 h. The Emax at 72 h [7] was -78%, the %max [8] was < 30% and the AC50 (Relaxin receptor 2 [9]; hek293) was “Not Active”.

`CCCCOc1ccccc1C(=O)Nc1ccccc1C(=O)Nc1cccc(S(=O)(=O)C(F)(F)F)c1` showed an EC50 (Relaxin receptor 1 [1]) of 124 nM, a fold change (FC) [2] of 1.6 and a %max [3] of 98%. The Activity [11] was “Active” and the AC50 (Relaxin receptor 1 [4]; read-out: AC50) was 47 nM.

With `O=C(Nc1ccc2cc[nH]c2c1)c1ccccc1NC(=O)C1CCCCC1` the solubility [5] was 1.7 µM (≈ 0.614 µg/mL), the “%max” value [3] was “inactive” and the AC50 (Vasopressin V1b receptor) was “Not Active”. For the same compound, the %max (Relaxin receptor 2 [6]) was 47%, the AC50 (Relaxin receptor 1 [4]; hek293) was “Not Active” and the Emax at 72 h [7] was < 30%. For the same compound, the EC50 (HEK293; hek293) was “Non-toxic”, the %max [8] was < 30% and the AC50 (Relaxin receptor 2 [9]; read-out: AC50) was 9400 nM.

For `COc1ccccc1C(=O)Nc1ccccc1C(=O)Nc1cccc(S(=O)(=O)C(F)(F)F)c1`, the EC50 (Relaxin receptor 1 [1]) was 358 nM, the fold change (FC) [2] was 1.4 and the %max [3] was 99%. The AC50 (Relaxin receptor 1 [4]; read-out: AC50) was 188 nM.

`CCOc1ccccc1C(=O)Nc1ccccc1C(=O)Nc1cccc(C(F)(F)F)c1` gave an EC50 (Relaxin receptor 1 [1]) of 471 nM, a fold change (FC) [2] of 1.9 and a %max [3] of 94%. For the same compound, the AC50 (Relaxin receptor 1 [4]; read-out: AC50) was 265 nM.

For `CCCOc1ccccc1C(=O)Nc1ccccc1C(=O)Nc1cccc(S(=O)(=O)C(F)(F)F)c1`, the EC50 (Relaxin receptor 1 [1]) was 105 nM, the fold change (FC) [2] was 1.5 and the %max [3] was 98%. For the same compound, the AC50 (Relaxin receptor 1 [4]; read-out: AC50) was 52 nM.

With `O=C(Nc1cccc(C(F)(F)F)c1)c1ccccc1NC(=O)C1CCCCC1` the solubility [5] was 5.3 µM (≈ 2.07 µg/mL), the %max [3] was 92% and the AC50 (Vasopressin V1b receptor) was “Not Active”. The %max (Relaxin receptor 2 [6]) was < 30%, the AC50 (Relaxin receptor 1 [4]; read-out: AC50) was 47 nM and the Emax at 72 h [7] was -53%. For the same compound, the EC50 (HEK293; [12]) was 59300 nM, the %max [8] was < 30% and the AC50 (Relaxin receptor 2 [9]; hek293) was “Not Active”.

In the case of `O=C(Nc1ccccc1C(=O)Nc1cccc(C(F)(F)F)c1)c1ccncc1`, the solubility [5] is reported as 17 µM (≈ 6.55 µg/mL), the %max [3] is reported as 51% and the AC50 (Vasopressin V1b receptor) is reported as “Not Active”. For the same compound, the %max (Relaxin receptor 2 [6]) was < 30%, the AC50 (Relaxin receptor 1 [4]; read-out: AC50) was 7470 nM and the Emax at 72 h [7] was 83%. The EC50 (HEK293; [12]) was 9400 nM, the %max [8] was < 30% and the AC50 (Relaxin receptor 2 [9]; hek293) was “Not Active”.

For `CCOc1ccccc1C(=O)Nc1ccccc1C(=O)Nc1cccc(S(=O)(=O)C(F)(F)F)c1`, the EC50 (Relaxin receptor 1 [1]) was 362 nM, the fold change (FC) [2] was 2.3 and the %max [3] was 99%.
